How the values were obtained:
[1] = target: T1, FL-SMARCA2 (full-length human SMARCA2 isoform 1) (Homo sapiens, UniProt P51531); assay: SMARCA2 ATPase activity assay (ADP-Glo, chicken mononucleosome substrate); assay type: biochemical; settings: ATPase assay, enzyme 5 nM, ATP 250 uM, chicken mononucleosome 10 nM, 30 min preincubation
T1 construct: FLAG tag (YKDDDDK) (C); made in house; host or cells: Sf21 insect cells (baculovirus, pFastBacI)

A549 cells [2] = assay: High-throughput proliferation (HTP) assay for A549 cells (CellTiter-Glo, 7 days); assay type: cell-based; settings: Homo sapiens, 168 h, read-out: A549 SMARCA2 IC50
How it was run: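 Seven-day growth of A549 (62.5 cells/well, F12K with 10% HI-FBS, 37° C.) with compound, read by CellTiter-Glo ATP luminescence. Percent inhibition scaled between DMSO wells and 10 μM Doxorubicin wells, then fitted for EC50 and IC50.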

FL-SMARCA4 = FL-SMARCA4 (Homo sapiens, UniProt P51532); assay: SMARCA4 ATPase activity assay (ADP-Glo, chicken mononucleosome substrate); settings: ATPase assay, enzyme 5 nM, ATP 250 uM, chicken mononucleosome 10 nM, 30 min preincubation
FL-SMARCA4, sequence (P51532 whole entry): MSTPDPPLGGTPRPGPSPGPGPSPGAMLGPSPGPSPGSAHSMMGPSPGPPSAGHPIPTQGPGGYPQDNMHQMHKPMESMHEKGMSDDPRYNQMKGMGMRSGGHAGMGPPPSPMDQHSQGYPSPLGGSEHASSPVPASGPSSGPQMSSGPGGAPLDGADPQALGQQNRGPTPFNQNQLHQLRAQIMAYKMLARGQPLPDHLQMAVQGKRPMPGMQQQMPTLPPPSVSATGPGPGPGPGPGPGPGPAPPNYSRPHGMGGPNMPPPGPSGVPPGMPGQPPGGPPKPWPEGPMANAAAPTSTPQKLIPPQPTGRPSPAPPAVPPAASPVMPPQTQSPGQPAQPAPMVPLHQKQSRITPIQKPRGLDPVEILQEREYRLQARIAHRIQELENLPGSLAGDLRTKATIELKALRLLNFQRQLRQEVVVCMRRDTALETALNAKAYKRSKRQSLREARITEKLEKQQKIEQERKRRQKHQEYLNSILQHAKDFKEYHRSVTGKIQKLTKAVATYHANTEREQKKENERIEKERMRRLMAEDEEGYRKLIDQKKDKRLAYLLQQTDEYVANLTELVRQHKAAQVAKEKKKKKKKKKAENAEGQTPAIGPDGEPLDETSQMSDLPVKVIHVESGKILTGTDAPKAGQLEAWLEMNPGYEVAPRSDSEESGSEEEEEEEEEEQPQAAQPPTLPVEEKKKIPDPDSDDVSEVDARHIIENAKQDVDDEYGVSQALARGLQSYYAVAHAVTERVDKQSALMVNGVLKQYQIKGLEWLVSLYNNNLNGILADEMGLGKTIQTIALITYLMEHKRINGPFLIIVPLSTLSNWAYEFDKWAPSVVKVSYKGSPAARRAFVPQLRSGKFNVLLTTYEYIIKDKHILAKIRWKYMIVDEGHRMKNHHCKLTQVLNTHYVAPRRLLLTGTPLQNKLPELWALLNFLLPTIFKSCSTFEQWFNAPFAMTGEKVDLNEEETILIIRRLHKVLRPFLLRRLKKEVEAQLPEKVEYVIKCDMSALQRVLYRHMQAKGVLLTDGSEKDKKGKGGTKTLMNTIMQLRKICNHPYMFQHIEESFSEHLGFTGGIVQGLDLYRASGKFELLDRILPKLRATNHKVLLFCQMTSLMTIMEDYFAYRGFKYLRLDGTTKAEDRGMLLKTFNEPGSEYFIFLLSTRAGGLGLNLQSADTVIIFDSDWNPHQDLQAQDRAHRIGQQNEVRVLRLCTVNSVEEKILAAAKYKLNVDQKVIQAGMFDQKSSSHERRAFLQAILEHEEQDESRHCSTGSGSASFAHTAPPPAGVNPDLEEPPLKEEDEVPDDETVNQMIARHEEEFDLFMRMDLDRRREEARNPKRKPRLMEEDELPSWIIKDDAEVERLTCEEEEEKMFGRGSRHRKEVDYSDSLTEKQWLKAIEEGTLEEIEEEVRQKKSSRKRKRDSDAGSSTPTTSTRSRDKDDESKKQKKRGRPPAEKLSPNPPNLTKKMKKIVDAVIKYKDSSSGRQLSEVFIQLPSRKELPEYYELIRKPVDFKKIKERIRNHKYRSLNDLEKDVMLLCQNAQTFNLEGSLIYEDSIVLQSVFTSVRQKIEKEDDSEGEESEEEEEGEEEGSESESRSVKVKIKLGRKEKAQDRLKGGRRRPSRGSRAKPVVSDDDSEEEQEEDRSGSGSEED
Protocol: Substrates. Chicken erythrocyte mononucleosomes were prepared from fresh chicken blood collected into anticoagulant and filtered through cheesecloth. The filtered chicken blood was diluted in buffer A (10 mM Tris-HCl, pH 7.4, 10 mM NaCl, 3 mM MgCl2) and centrifuged at 500 g for 15 minutes to collect the erythrocytes. Erythrocyte nuclei were harvested by resuspending the pellets in buffer A containing 0.3% NP-40 detergent. The mixture was stirred with a magnetic bar for 10 mins and centrifuged at 4000 g for 10 minutes. Resuspension, stirring and centrifugation was repeated twice more before the final nuclei pellet was resuspended in buffer A+0.3% NP-40 and stored at −80° C. until purification. For nucleosome purification, nuclei aliquots were rapidly thawed and washed five times with buffer B (10 mM Tris-HCl, pH 7.4, 1 mM CaCl2), 1 mM PMSF) and collected by centrifugation at 2800 g for 10 minutes. Pellets were resuspended in buffer B and treated with 100 U/mL micrococcal nuclease for 40 minutes at 37° C. The reaction was terminated by the addition of 2 mM EDTA and was centrifuged at 2800 g for 10 minutes. The nuclei were then lysed by resuspending the pellet in 1 mM EDTA and 1 mM PMSF and passing the mixture through a 22G needle 4 to 5 times. The solution was then centrifuged at 15,000 g for 20 minutes and the supernatant was collected. The remaining pellet was lysed through the syringe twice more and the supernatants were pooled after centrifugation. The pooled supernatants were further purified by size exclusion chromatography (GE Sephacryl S300 HR 50/100) in buffer C (10 mM HEPES, pH 7.5, 10 mM KCl, 1 mM EDTA, 1 mM PMSF, 10% glycerol). Fractions were analyzed by agarose gel electrophoresis and SDS-PAGE and fractions containing mononucleosomes were pooled and stored at −80° C.
The SMARCA2 or SMARCA4 ATPase assays were identical. The SMARCA2 or SMARCA4 ATPase assays were performed in a buffer consisting of 20 mM Bicine (pH 7.5), 10 mM KCl, 1 mM MgCl2, 1 mM TCEP, 0.005% BSG, and 0.002% Tween 20, prepared on the day of use. Compounds in 100% DMSO were 3-fold serially diluted to produce a 10 point curve for IC50 determination and 0.2 uL were transferred into polypropylene 384-well V-bottom plates (Greiner) using an Echo liquid handler (Labcyte). DMSO (0.2 uL) was added to Columns 11, 12, 23, 24, rows A-H for the maximum signal control and 0.2 uL doxorubicin, a known DNA intercalator, was added to columns 11, 12, 23, 24, rows I-P for the minimum signal control. The SMARCA2 or SMARCA4 enzyme (10 uL) was added to the compounds and allowed to incubate with the compounds for 30 min at room temperature. The SMARCA2 or SMARCA4 ATPase assay was initiated by the addition of 10 uL chicken mononucleosome and ATP mixture (final volume=20 uL). The final concentrations of the assay components were as follows: SMARCA2 or SMARCA4 was 5 nM, ATP was 250 uM, chicken mononucleosome was 10 nM, doxorubicin in the minimum signal control wells was 50 uM, and the DMSO concentration was 1%. 5 uL of the reaction mixture was transferred from the 384-well polypropylene plate to a white opaque polystyrene 384-well plate. At 60 minutes, the assays were terminated by the addition of 5 uL ADP-Glo™ Reagent (Promega). After 40 minutes, the luciferase reaction was initiated by the addition of 10 uL of Kinase Detection Reagent (Promega) and incubated for 1 hour. The ADP product generated from the SMARCA2 or SMARCA4 ATPase reaction was determined via luminescence intensity.

H358 cells = assay: High-throughput proliferation (HTP) assay for H358 cells (CellTiter-Glo, 7 days); assay type: cell-based; settings: Homo sapiens, NCI-H358, 168 h, read-out: H358 SMARCA2 IC50
How it was run: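 Cells were plated at 1,000 cells/well in RPMI 1640 + 10% HI-FBS + 1% pen/strep on pre-dispensed compound and incubated 7 days at 37 °C, 5% CO2. Viability was read as ATP luminescence with CellTiter-Glo after 30 min at RT. DMSO served as 0% and 10 µM doxorubicin as 100% inhibition for EC50/IC50.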

A549 cells [3] = assay: Long term proliferation (LTP) assay, day 15 IC50 in A549 cells; assay type: cell-based; settings: Homo sapiens, 360 h
SMARCA2 = target: T2, SMARCA2 (Homo sapiens, UniProt P51531); assay: SMARCA2 FRET nucleosome remodeling activity assay; assay type: biochemical
T2 construct: FLAG tag (YKDDDDK) (C); made in house; host or cells: Sf21 insect cells (baculovirus, pFastBacI)
T2 sequence (P51531 with tags, fused parts or gaps): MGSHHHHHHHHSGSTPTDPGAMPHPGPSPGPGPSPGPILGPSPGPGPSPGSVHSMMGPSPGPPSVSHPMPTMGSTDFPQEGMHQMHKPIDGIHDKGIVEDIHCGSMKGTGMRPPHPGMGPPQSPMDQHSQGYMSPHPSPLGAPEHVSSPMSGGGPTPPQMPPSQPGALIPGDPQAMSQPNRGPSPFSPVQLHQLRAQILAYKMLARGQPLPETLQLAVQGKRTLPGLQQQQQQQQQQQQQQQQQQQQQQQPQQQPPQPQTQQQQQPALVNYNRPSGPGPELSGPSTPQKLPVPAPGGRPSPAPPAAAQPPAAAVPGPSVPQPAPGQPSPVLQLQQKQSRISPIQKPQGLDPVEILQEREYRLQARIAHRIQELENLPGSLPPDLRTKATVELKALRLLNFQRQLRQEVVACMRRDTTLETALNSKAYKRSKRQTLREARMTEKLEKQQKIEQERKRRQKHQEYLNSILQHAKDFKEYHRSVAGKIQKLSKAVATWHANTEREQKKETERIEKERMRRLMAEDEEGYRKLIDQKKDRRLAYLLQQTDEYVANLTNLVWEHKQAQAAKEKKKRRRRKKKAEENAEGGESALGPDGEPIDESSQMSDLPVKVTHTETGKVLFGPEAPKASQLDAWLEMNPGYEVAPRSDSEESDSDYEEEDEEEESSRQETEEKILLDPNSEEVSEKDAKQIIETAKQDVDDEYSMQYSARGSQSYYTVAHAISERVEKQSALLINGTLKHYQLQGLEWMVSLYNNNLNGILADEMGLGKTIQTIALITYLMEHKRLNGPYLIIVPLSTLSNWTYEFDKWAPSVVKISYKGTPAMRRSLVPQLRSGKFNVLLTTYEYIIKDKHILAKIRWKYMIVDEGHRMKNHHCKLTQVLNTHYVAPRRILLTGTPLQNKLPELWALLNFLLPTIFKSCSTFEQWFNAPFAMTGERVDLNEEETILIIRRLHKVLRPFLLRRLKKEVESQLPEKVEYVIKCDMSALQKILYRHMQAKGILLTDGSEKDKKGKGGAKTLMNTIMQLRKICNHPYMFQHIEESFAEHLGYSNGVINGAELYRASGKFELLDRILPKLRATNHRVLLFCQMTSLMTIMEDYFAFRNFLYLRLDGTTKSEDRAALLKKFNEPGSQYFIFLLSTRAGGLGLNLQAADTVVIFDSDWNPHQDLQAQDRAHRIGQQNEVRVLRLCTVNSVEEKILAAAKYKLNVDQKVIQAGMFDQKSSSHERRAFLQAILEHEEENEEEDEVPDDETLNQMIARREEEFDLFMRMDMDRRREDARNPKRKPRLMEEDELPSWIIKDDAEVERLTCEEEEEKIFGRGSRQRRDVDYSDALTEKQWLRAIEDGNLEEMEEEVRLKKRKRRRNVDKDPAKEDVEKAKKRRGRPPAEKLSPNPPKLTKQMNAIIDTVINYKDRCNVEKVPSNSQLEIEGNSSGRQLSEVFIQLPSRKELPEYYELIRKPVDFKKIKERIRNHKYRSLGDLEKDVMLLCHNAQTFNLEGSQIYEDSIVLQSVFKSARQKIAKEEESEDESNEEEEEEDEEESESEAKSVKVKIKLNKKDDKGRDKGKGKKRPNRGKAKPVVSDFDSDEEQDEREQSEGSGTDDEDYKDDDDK
Protocol: The SMARCA2 remodeling assay was initiated by the addition of 2 uL of a nucleosome remodeling assay substrate and ATP mixture (final volume=10 uL). […] The assays were terminated after 15 minutes by the addition of 2 uL EDTA (final concentration of 25 mM). The SMARCA2 remodeling activity was determined by measuring the fluorescence ratio of the Cy3 and Cy5 labels ([…]). The remodeling of the nucleosome substrate causes an increase in the spacing between the Cy3 and Cy5 labels and therefore a reduction in FRET and an increase in Cy3/Cy5 fluorescence ratio.

T1 sequence (P51531 with tags, fused parts or gaps): as above

## N#Cc1sc(C(=O)Nc2cc(F)c(=O)n(CC(F)F)c2)cc1C(F)(F)F [Compound 96c]
[1]; Table 3c.1
  IC50: 10500 nM
A549 cells [2]
  IC50: > 10000 nM
FL-SMARCA4; FL-SMARCA4 IC>50, Table 3c.2
  IC50: 29300 nM
H358 cells
  IC50: > 10000 nM
A549 cells [3]
  IC50: ≥ 10000 nM

## O=C(Nc1cc(F)c(=O)n(CCF)c1)c1cc(Cl)c(C(F)(F)F)s1 [Compound 249]
[1]; Table 3.1
  IC50: 35.8 nM
A549 cells [2]
  IC50: 734 nM
SMARCA2
  IC50: 70 nM
FL-SMARCA4; FL-SMARCA4 IC50, Table 3.2
  IC50: 260 nM
A549 cells [3]
  IC50: 323 nM

## O=C(Nc1cc(F)c(=O)n(CCF)c1)c1cc(F)c(Cl)s1 [Compound 260]
[1]; Table 3.1
  IC50: 15.3 nM
A549 cells [2]
  IC50: 528 nM
SMARCA2
  IC50: 18.2 nM
FL-SMARCA4; FL-SMARCA4 IC50, Table 3.2
  IC50: 65.4 nM
A549 cells [3]
  IC50: 93 nM

## N#Cc1cc(C(=O)Nc2cc(F)c(=O)n(CCF)c2)[nH]n1 [Compound 176]
[1]; Table 3.1
  IC50: 55.2 nM
A549 cells [2]
  IC50: ≥ 20000 nM
SMARCA2
  IC50: 81.8 nM
FL-SMARCA4; FL-SMARCA4 IC50, Table 3.2
  IC50: 267 nM
A549 cells [3]
  IC50: ≥ 20000 nM

## Cc1cc(C#Cc2cc(C(=O)Nc3cc(F)c(=O)n(CC(F)F)c3)sc2Cl)sn1 [Compound 64c]
[1]; Table 3c.1
  IC50: 8.79 nM
A549 cells [2]
  IC50: 374 nM
FL-SMARCA4; FL-SMARCA4 IC>50, Table 3c.2
  IC50: 29.7 nM
H358 cells
  IC50: > 10000 nM
A549 cells [3]
  IC50: 88 nM

## CCn1cc(NC(=O)c2cc(C#N)c(C#N)s2)cc(F)c1=O [Compound 188]
[1]; Table 3.1
  IC50: 30.5 nM
A549 cells [2]
  IC50: 18100 nM
SMARCA2
  IC50: 22.2 nM
FL-SMARCA4; FL-SMARCA4 IC50, Table 3.2
  IC50: 119 nM
A549 cells [3]
  IC50: 9900 nM

## Cc1ncc(C#Cc2cc(C(=O)Nc3cc(F)c(=O)n(CC(F)F)c3)sc2Cl)o1 [Compound 62c]
[1]; Table 3c.1
  IC50: 8.05 nM
A549 cells [2]
  IC50: 548 nM
FL-SMARCA4; FL-SMARCA4 IC>50, Table 3c.2
  IC50: 26.8 nM
H358 cells
  IC50: > 10000 nM
A549 cells [3]
  IC50: 89 nM

## O=C(Nc1cc(F)c(=O)n(CCF)c1)c1cnc(C(F)(F)F)s1 [Compound 265]
[1]; Table 3.1
  IC50: 81.5 nM
A549 cells [2]
  IC50: 7300 nM
SMARCA2
  IC50: 143 nM
FL-SMARCA4; FL-SMARCA4 IC50, Table 3.2
  IC50: 590 nM
A549 cells [3]
  IC50: 851 nM

## N#Cc1ncc(C(=O)Nc2cc(F)c(=O)n(CCF)c2)s1 [Compound 138]
[1]; Table 3.1
  IC50: 6.42 nM
A549 cells [2]
  IC50: ≥ 20000 nM
SMARCA2
  IC50: 14.3 nM
FL-SMARCA4; FL-SMARCA4 IC50, Table 3.2
  IC50: 16.1 nM
A549 cells [3]
  IC50: ≥ 20000 nM

## N#Cc1cc(C(=O)Nc2cc(Cl)c(=O)n(CCF)c2)sc1C#N [Compound 192]
[1]; Table 3.1
  IC50: 17.1 nM
A549 cells [2]
  IC50: ≥ 20000 nM
SMARCA2
  IC50: 21.9 nM
FL-SMARCA4; FL-SMARCA4 IC50, Table 3.2
  IC50: 87.4 nM
A549 cells [3]
  IC50: 4200 nM

## N#Cc1sc(C(=O)Nc2cc(Cl)c(=O)n(CCF)c2)cc1Cl [Compound 125, 4-Chloro-N-(5-chloro-1-(2-fluoroethyl)-6-oxo-1,6-dihydropyridin-3-yl)-5-cyanothiophene-2-carboxamide]
[1]; Table 3.1
  IC50: 30.9 nM
A549 cells [2]
  IC50: 1160 nM
SMARCA2
  IC50: 66.1 nM
FL-SMARCA4; FL-SMARCA4 IC50, Table 3.2
  IC50: 108 nM
A549 cells [3]
  IC50: 484 nM

## O=C(Nc1cc(F)c(=O)n(CC(F)F)c1)c1cc(C#Cc2ccncc2)c(Cl)s1 [Compound 345]
[1]; Table 3.1
  IC50: 16.5 nM
A549 cells [2]
  IC50: 355 nM
FL-SMARCA4; FL-SMARCA4 IC50, Table 3.2
  IC50: 37.9 nM
H358 cells
  IC50: > 10000 nM
A549 cells [3]
  IC50: 58 nM

## O=C(Nc1cc(F)c(=O)n(CCF)c1)c1cnc(Cl)s1 [Compound 142]
[1]; Table 3.1
  IC50: 47.4 nM
A549 cells [2]
  IC50: 1340 nM
SMARCA2
  IC50: 60 nM
FL-SMARCA4; FL-SMARCA4 IC50, Table 3.2
  IC50: 163 nM
A549 cells [3]
  IC50: 534 nM

## CCn1cc(NC(=O)c2cc(C#N)c(C#N)s2)cc(Cl)c1=O [Compound 191]
[1]; Table 3.1
  IC50: 45.9 nM
A549 cells [2]
  IC50: 13400 nM
SMARCA2
  IC50: 65.3 nM
FL-SMARCA4; FL-SMARCA4 IC50, Table 3.2
  IC50: 184 nM
A549 cells [3]
  IC50: 8300 nM

## N#Cc1cc(C(=O)Nc2cc(F)c(=O)n(CC(F)(F)F)c2)sc1C#N [Compound 190]
[1]; Table 3.1
  IC50: 20.1 nM
A549 cells [2]
  IC50: 12000 nM
SMARCA2
  IC50: 35 nM
FL-SMARCA4; FL-SMARCA4 IC50, Table 3.2
  IC50: 85.1 nM
A549 cells [3]
  IC50: 3900 nM

## O=C(Nc1cc(Cl)c(=O)n(CCF)c1)c1cc(Cl)c(Cl)s1 [Compound 101]
[1]; Table 3.1
  IC50: 74.1 nM
A549 cells [2]
  IC50: 2270 nM
SMARCA2
  IC50: 314 nM
FL-SMARCA4; FL-SMARCA4 IC50, Table 3.2
  IC50: 237 nM
A549 cells [3]
  IC50: 356 nM

From patent US20220356174A1, “PYRIDIN-2-ONE COMPOUNDS USEFUL AS SMARCA2 ANTAGONISTS” (Epizyme, Inc., priority 2018, published 2022)
